{"source": "paper PMC10518255", "about": "“A first-in-class pan-lysyl oxidase inhibitor impairs stromal remodeling and enhances gemcitabine response and survival in pancreatic cancer” (Nature Cancer, 2023)", "key": {"[1]": {"test_system": "lysyl oxidase family activity in conditioned medium from KPC cancer cells", "test": "Amplex red enzymatic activity assay on cell-derived conditioned medium (Extended Data Fig. 3g)", "type": "biochemical, mouse", "set-up": "Lysyl oxidase family activity in conditioned media: unit not given here", "conditions": "for Lysyl oxidase family activity in conditioned media: KPC cancer cells CM, replicates", "experimental": "(§1) Cell-derived conditioned medium was prepared from KPC CAFs and CCs grown in phenol red-free DMEM with 0.1% FBS and 10 μM CuSO4 for 24 h. At collection, size filtration >10 kDa for 40× concentration and buffer exchange (1.2 M urea and 50 mM sodium borate buffer, pH 8.2) were performed and subsequently used for the Amplex red assay as previously described[59] using putrescine as a substrate. Three biological repeats were performed.\n(§2) Data presented as mean values +/− SD. f. […] Data presented as mean values +/− SD. […] Data presented as mean values +/− SD. […] Data presented as mean values +/− SD. Ordinary one-way ANOVA for multiple comparison test performed. Source data"}, "[2]": {"test_system": "lysyl oxidase family activity in conditioned medium from KPC CAFs", "test": "Amplex red enzymatic activity assay on cell-derived conditioned medium (Extended Data Fig. 3g)", "type": "biochemical, mouse", "set-up": "Lysyl oxidase family activity in conditioned media: unit not given here", "conditions": "for Lysyl oxidase family activity in conditioned media: KPC CAF CM, replicates", "experimental": "as §1, §2"}, "[3]": {"test_system": "MPO", "test": "Immunohistochemistry of end-point KPC tumors: myeloperoxidase cell infiltration", "type": "in vivo, mouse", "conditions": "KPC tumours at endpoint; individual replicate values (Extended Data 6H)", "experimental": "All tissues or matrices, including patient TMAs, were fixed in 10% buffered formalin and embedded in paraffin. The 4-μm sections of samples were deparaffinized with xylene and rehydrated in graded ethanol washes. For immunohistochemistry, Bond Dewax Solution (AR9222) was used. Antigen retrieval was performed using Bond RX H2(30) protocol: HIER 30 min ER1 (citrate pH 6) OR ER2 (EDTA pH 9) at 100 °C. Slides were quenched in BOND Polymer Refine Detection (Leica Biosystems DS9800). […] Slides were digitized on an Aperio slide scanner and representative areas per tumor acquired and analyzed by researchers blinded to the conditions of the experiment.\nExtended Data Fig. 6 PXS-5505 in combination with gemcitabine in a KPC model. a. Quantification of proliferating cells (Ki67 positive nuclear staining) in KPC tumors at end point, treated as indicated. 5 fields of view (500 μm × 500 μm) per mouse and 10 mice per cohort were scored. […] Quantification of percent coverage of αSMA positive staining in KPC tumors at end point, treated as indicated. 3 fields of view (1000 μm × 1000 μm) per mouse and 10 mice per cohort were scored. […] Quantification of percent coverage of PDGFR-ß positive staining in KPC tumors at end point, treated as indicated. 3 fields of view (1000 μm × 1000 μm) per mouse and 10 mice per cohort were scored. […] 3 fields of view (500 μm × 500 μm) per mouse and 10 mice per cohort were scored. […]"}}, "note": "Values joined by “and” are separate entries in the source; they are usually repeats but may differ in a detail not shown here. Equal entries are not always repeated.", "data": [{"smiles": "Cl.Cl.NC/C=C(\\F)CS(=O)(=O)c1cccc2cccnc12.O", "note": "[PXS-5505, (Z)-3-fluoro-4-(quinolin-8-ylsulfonyl)but-2-en-1-amine dihydrochloride monohydrate]", "values": [{"measurement": "inhibition of lysyl oxidase family activity in conditioned medium", "setting": "[1]; KPC CCs", "value": "inhibition of lysyl oxidase family activity"}, {"measurement": "Lysyl oxidase family activity in conditioned media", "setting": "[1]; 1.5 nM PXS", "value": "52.7404 and 147.39 and 87.9635"}, {"measurement": "Lysyl oxidase family activity in conditioned media", "setting": "[1]; 3 nM PXS", "value": "57.9047 and 143.925 and 88.9618"}, {"measurement": "Lysyl oxidase family activity in conditioned media", "setting": "[1]; 15 nM PXS", "value": "58.7665 and 150.554 and 90.679"}, {"measurement": "Lysyl oxidase family activity in conditioned media", "setting": "[1]; 30 nM PXS", "value": "57.8418 and 141.264 and 86.9464"}, {"measurement": "Lysyl oxidase family activity in conditioned media", "setting": "[1]; 150 nM PXS", "value": "55.9673 and 128.167 and 75.6773"}, {"measurement": "Lysyl oxidase family activity in conditioned media", "setting": "[1]; 300 nM PXS", "value": "56.4831 and 97.2065 and 57.86"}, {"measurement": "Lysyl oxidase family activity in conditioned media", "setting": "[1]; 1.5 uM PXS", "value": "35.0772 and 43.4748 and 18.796"}, {"measurement": "Lysyl oxidase family activity in conditioned media", "setting": "[1]; 3 uM PXS", "value": "22.4023 and 21.6286 and 3.933"}, {"measurement": "Lysyl oxidase family activity in conditioned media", "setting": "[1]; 15 uM PXS", "value": "-2.759 and 11.8534 and -9.095"}, {"measurement": "Lysyl oxidase family activity in conditioned media", "setting": "[1]; 30 uM PXS", "value": "-2.098 and 9.262 and -6.1538"}, {"measurement": "Lysyl oxidase family activity in conditioned media", "setting": "[2]; 1.5 nM PXS", "value": "95.9609 and 94.079 and 81.6749"}, {"measurement": "Lysyl oxidase family activity in conditioned media", "setting": "[2]; 3 nM PXS", "value": "109.447 and 108.981 and 81.5719"}, {"measurement": "Lysyl oxidase family activity in conditioned media", "setting": "[2]; 15 nM PXS", "value": "100.129 and 99.9799 and 74.1019"}, {"measurement": "Lysyl oxidase family activity in conditioned media", "setting": "[2]; 30 nM PXS", "value": "107.999 and 96.3316 and 79.5133"}, {"measurement": "Lysyl oxidase family activity in conditioned media", "setting": "[2]; 150 nM PXS", "value": "79.0426 and 71.3415 and 64.7518"}, {"measurement": "Lysyl oxidase family activity in conditioned media", "setting": "[2]; 300 nM PXS", "value": "88.3802 and 67.0866 and 51.1694"}, {"measurement": "Lysyl oxidase family activity in conditioned media", "setting": "[2]; 1.5 uM PXS", "value": "45.307 and 27.142 and 15.754"}, {"measurement": "Lysyl oxidase family activity in conditioned media", "setting": "[2]; 3 uM PXS", "value": "31.4691 and 22.608 and 3.789"}, {"measurement": "Lysyl oxidase family activity in conditioned media", "setting": "[2]; 15 uM PXS", "value": "-3.917 and 9.401 and -5.483"}, {"measurement": "Lysyl oxidase family activity in conditioned media", "setting": "[2]; 30 uM PXS", "value": "-4.091 and 9.102 and -4.018"}, {"measurement": "inhibition of lysyl oxidase family activity in conditioned medium", "setting": "[2]; KPC CAFs", "value": "inhibition of lysyl oxidase family activity"}, {"measurement": "number of myeloperoxidase (MPO+) cell infiltration", "setting": "[3]", "value": 11}]}]}
